How the values were obtained:
IL-4 production = assay: Measurement of IL-4 production inhibiting ability (KLH-stimulated lymphocytes, ELISA); type: cell-based; details: lymph node lymphocytes of KLH-sensitized Balb/c mice, KLH 10 μg/mL, 3 days, IL-4 in supernatant by ELISA; for IC50: Mus musculus, Lymphocyte, 72 h, read-out: IC50 (concentrations at which IL-4 yields were inhibited by 50%)
Procedure: A 4 mg/mL solution of KLH (Keyhole Limpet Hemocyanin; product of Pierce Chemical Company) and Freund complete adjuvant FCA (Bacto Adjuvant Complete Freund; product of DIFCO) were mixed and emulsified at a volume ratio of 1:1. The resulting emulsion was subcutaneously injected at 200 μL/head to the foreleg paws and hind leg paws of Balb/c mice (female, 8 to 12 weeks old), whereby the mice were sensitized. About 7 days later, axillary and popliteal lymph nodes were excised. After the lymph nodes were washed in PBS, they were loosened between two slide glasses in RPMI medium which had been prepared by adding kanamycin and β-mercapto-ethanol to “RPMI 1640 Medium” (product of BRL) such that their final concentrations became 100 μg/mL and 100 μM, respectively, whereby a suspension of lymphocytes was prepared. The lymphocyte suspension was centrifuged twice at 1,000 rpm for 5 minutes, followed by suspension in the RPMI medium added with 10% FCS. The lymphocytes were spread at 4×10^5 lymphocytes/well over 96-well plates. Individual compounds or essential oils, which had been prepared at varied concentrations with 10% FCS-added RMPI medium, were added within a final concentration range of from 0.01 to 100 μg/mL. Subsequent to incubation at 37° C. for about 30 minutes in the presence of 5% CO2, KLH was added to give a final concentration of 10 μg/mL. After incubation at 37° C. for 3 days in the presence of 5% CO2, IL-4 in each supernatant was quantitated by ELISA.
For the ELISA quantitation, “Mice IL-4 ELISA Kit” (product of Amersham Corp.) was used. Following a protocol attached to the kit, the quantitation was conducted using recombinant IL-4 as a standard substance. IL-4 production inhibition rates of the individual compounds at the varied concentrations were calculated [100-(IL-4 yield when the sample was added/IL-4 yield in a control added only with the culture medium)×100]. From the IL-4 production inhibition rates, IC50 values (concentrations at which IL-4 yields were inhibited by 50%) were determined.

[1] = tested on: allergy to house dust mite antigen; assay: Effects on allergy to house dust mite antigen (ear swelling); type: in vivo, Balb/c mice; details: for Swelling inhibition rate (%): 20 μL topically on ear, 24 h after challenge; for inhibitory effects for allergy to the house dust mite antigen (in words): concentrations of 0.1% and 1.0%, statistically significant at 1% or 5% significance level
Procedure: Tape stripping was applied 8 times with an adhesive cellophane tape (product of Nichiban Co., Ltd.) to shaved abdominal parts of Balb/c mice (female). The abdominal parts were coated with 50-μL portions of a house dust mite antigen, which had been obtained by dialyzing an allergen scratch extract “DANI” (product of Torii Pharmaceutical Co., Ltd.) and then concentrating the dialyzate ten-fold by ultrafiltration, so that the mice were sensitized. One, four, five and six days later, 20 μL portions of cedrol, cumin oil and cedarwood oil of concentrations shown in Table 2 (prepared by dissolving them in 70% ethanol solution) were topically applied onto one ears, respectively, and the same amount of the solvent control (70% ethanol solution) was applied at the others. Seven days after the sensitization, the mice were challenged on the dorsal ear lobe by subcutaneous injection of 10 μL of the same angiten solution. To measure ear swelling caused by nonspecific stimulation with the house dust mite antigen, 10-μL portions of the house dust mite antigen were subcutaneously injected to one ear lobes of unsensitized mice. Three and twenty hours after the stimulation, the ear lobes of the anesthetized mice were covered with pieces of paper towel soaked with purified water of 40° C., respectively. After that, 20 μL portions of the individual compounds were topically applied to one ears, respectively, while to the other, the same amount of the solvent control were applied. Twenty-four hours after stimulation, the thicknesses of the ears were measured by a thickness gauge, and differences from the thicknesses of the corresponding ears before the stimulation were recorded as ear swellings. Each ear swelling inhibition rate (%) was determined by the following formula: [ear swelling (solvent control)−ear swelling (sample)]/[ear swelling (solvent control)−ear swelling (nonspecific stimulation by the house dust mite antigen)]×100. Differences in swelling between the ear applied with the solvent control and the corresponding ears applied with the samples, respectively, were statistically analyzed by t-test, and any difference with significance level lower than 5% was considered statistically significant.

Row | Compound | IC50 (concentrations at which IL-4 yields were inhibited by 50%) (IL-4 production) [µg/mL] | IC50 (IL-4 production) [µg/mL] | other results
1 | CC(=O)C1=C(C)[C@@H]2C[C@@]3(C1)[C@H](C)CC[C@H]3C2(C)C [Acetylcedrene] | 1.60 | – | –
2 | C[C@@H]1CC[C@H]2C(C)(C)[C@H]3C[C@@]12CC[C@@]3(C)O [Cedrol] | – | 3 | Swelling inhibition rate (%) ([1]; Concentration 0.01 W/V %): 8%; Swelling inhibition rate (%) ([1]; Concentration 0.10 W/V %): 14%; Swelling inhibition rate (%) ([1]; Concentration 1.00 W/V %): 13%; inhibitory effects for allergy to the house dust mite antigen (in words) [1]: marked effects
3 | CC(=O)O[C@]1(C)CC[C@@]23C[C@@H]1C(C)(C)[C@@H]2CC[C@H]3C [Cedryl acetate] | – | 0.78 | –
4 | CC(C)=CCCC(C)CCO (stereo not shown) [Citronellol] | – | 37.3 | –
5 | C=CCc1ccc(O)c(OC)c1 [Eugenol] | – | 5.6 | –
6 | CC(C)=CCCC(C)=CCCC(C)=CCO [Farnesol] | – | 0.59 | –
7 | C[C@@H]1CC[C@@H]2[C@@H]1[C@H]1[C@@H](CC[C@@]2(C)O)C1(C)C [Globulol] | – | 1.08 | Swelling inhibition rate (%) ([1]; Concentration 0.01 W/V %): 11%; Swelling inhibition rate (%) ([1]; Concentration 0.10 W/V %): 19%; Swelling inhibition rate (%) ([1]; Concentration 1.00 W/V %): 26%; inhibitory effects for allergy to the house dust mite antigen (in words) [1]: marked effects
8 | C[C@H]1CC[C@@H](C(C)(C)O)CC2=C1CC[C@@H]2C [Guaiol] | 0.68 | – | –
9 | CC(C)c1cccc(=O)c(O)c1 [Hinokitiol] | – | 0.1 | –
10 | CC1CCC(C(C)C)C(O)C1 (stereo not shown) [Menthol] | – | 19.6 | –
11 | C[C@H]1CC[C@@]2(O)C(C)(C)[C@@H]3CC[C@@]2(C)[C@H]1C3 [Patchouli alcohol] | 0.72 | – | –
12 | CCOCC(O)COc1ccc(NC(=O)CC[S+](C)C)cc1 (stereo not shown) [Suplatast tosilate, reference compound] | – | 50 | –
13 | CC1(C)CCC[C@@]2(C)CC[C@](C)(O)CC=C12 [Widdrol] | 4.00 | – | –
14 | Cedrenol | 3.34 | – | –
15 | Epiglobulol | 1.14 | – | –
16 | Santalol | 2.40 | – | –
17 | Thujopsenol | 3.60 | – | –

From patent US6495171B2, “Interleukin-4 production inhibitors” (Kao Corporation, priority 1999, dated 2002)
